System: NCIH929.1 cells
Experiment: Cell viability assay (CellTiter-Glo 2.0, ATP quantification)
Assay type: cell-based
Details: NCIH929.1 cell viability, CellTiter-Glo 2.0, 96 hr incubation, top concentration 1 μM
Procedure: Example 59. Cell Viability Assay
RPMI 1640 medium, fetal bovine serum (FBS) and 2-mercaptoethanol were purchased from Gibco (Grand Island, N.Y., USA). CellTiter-Glo® 2.0 Assay was purchased from Promega (Madison, Wis., USA). NCIH929.1 cell line was purchased from ATCC (Manassas, Va., USA). Cell culture flasks and 384-well microplates were acquired from VWR (Radnor, Pa., USA).
NCIH929.1 cell viability was determined based on quantification of ATP using CellTiter-Glo® 2.0 luminescent Assay kit, which signals the presence of metabolically-active cells. Briefly, the test compound was added to 384-well plates at a top concentration of 1 μM with 10 points, half log titration in duplicates. NCIH929.1 cells were seeded into the 384-well plates in RPMI medium containing 10% FBS and 0.05 mM 2-mercaptoethanol at a cell density of 750 cells per well. Cells treated in the absence of the test compound were the negative control and cells treated in the absence of CellTiter-Glo® 2.0 were the positive control. At the same day of compound treatment, CellTiter-Glo® 2.0 was added to a plate with cells treated in the absence of the test compound to establish Cytostatic control value (CT0). Cells treated with the test compound were incubated at 37° C. with 5% CO2 for 96 hr. CellTiter-Glo reagent was then added to the cells and luminescence was acquired on EnVision™ Multilabel Reader (PerkinElmer, Santa Clara, Calif., USA).

| Structure (SMILES) | GI50 [µM] |
| --- | --- |
| [2H][C@@]1(N2C(=O)c3cccc(NCc4cnn(C5CCN(C(=O)OC(C)(C)C)CC5)c4)c3C2=O)CCC(=O)NC1=O (single isomer, unassigned) [Compound 185] | < 0.1 |
| [2H][C@]1(N2C(=O)c3cccc(NCc4cnn(C5CCN(C(=O)OC(C)(C)C)CC5)c4)c3C2=O)CCC(=O)NC1=O (single isomer, unassigned) [Compound 186] | < 0.1 |
| CC1(C(=O)N2CCC(n3cc(CNc4cccc5c4C(=O)N(C4CCC(=O)NC4=O)C5=O)cn3)CC2)CC1(Cl)Cl (stereo in doubt) [Compound 182, 4-(((1-(1-((R)-2,2-Dichloro-1-methylcyclopropane-1-carbonyl)piperidin-4-yl)-1H-pyrazol-4-yl)methyl)amino)-2-(2,6-dioxopiperidin-3-yl)isoindoline-1,3-dione] | < 0.1 |
| CC1(C(=O)N2CCC(n3cc(CNc4cccc5c4C(=O)N(C4CCC(=O)NC4=O)C5=O)cn3)CC2)CC1(Cl)Cl (stereo in doubt) [Compound 183, 4-(((1-(1-((S)-2,2-Dichloro-1-methylcyclopropane-1-carbonyl)piperidin-4-yl)-1H-pyrazol-4-yl)methyl)amino)-2-(2,6-dioxopiperidin-3-yl)isoindoline-1,3-dione] | < 0.001 |
| COCCC(=O)N1CCC(n2cc(CNc3cccc4c3C(=O)N(C3CCC(=O)NC3=O)C4=O)cn2)CC1 (stereo not drawn) [Compound 6, 2-(2,6-dioxopiperidin-3-yl)-4-(((1-(1-(3-methoxypropanyl)piperidin-4-yl)-1H-pyrazol-4-yl)methyl)amino)isoindoline-1,3-dione] | < 0.1 |
| O=C1CCC(N2C(=O)c3cccc(NCc4cnn(C5CCN(C(=O)c6cnco6)CC5)c4)c3C2=O)C(=O)N1 (stereo not drawn) [Compound 7, 2-(2,6-dioxopiperidin-3-yl)-4-(((1-(1-(oxazole-5-carbnonyl)piperidin-4-yl)-1H-pyrazol-4-yl)methyl)amino)isoindoline-1,3-dione] | < 0.1 |
| CC(C)(C)CCC(=O)N1CCC(n2cc(CNc3cccc4c3C(=O)N(C3CCC(=O)NC3=O)C4=O)cn2)CC1 (stereo not drawn) [Compound 8, 4-(((1-(1-(4,4-dimethylpentanoyl)piperidin-4-yl)-1H-pyrazol-4-yl)methyl)amino)-2-(2,6-dioxopiperidin-3-yl)isoindoline-1,3-dione] | < 0.001 |
| CC(C)C(=O)N1CCC(n2cc(CNc3cccc4c3C(=O)N(C3CCC(=O)NC3=O)C4=O)cn2)CC1 (stereo not drawn) [Compound 9, 2-(2,6-dioxopiperidin-3-yl)-4-(((1-(1-isobutyrylpiperidin-4-yl)-1H-pyrazol-4-yl)methyl)amino)isoindoline-1,3-dione] | < 0.1 |
| O=C1CCC(N2C(=O)c3cccc(NCc4cnn(C5CCN(C(=O)C(F)F)CC5)c4)c3C2=O)C(=O)N1 (stereo not drawn) [Compound 10, 4-(((1-(1-(2,2-difluoroacetyl)piperidin-4-yl)-1H-pyrazol-4-yl)methyl)amino)-2-(2,6-dioxopiperidin-3-yl)isoindoline-1,3-dione] | < 0.1 |
| O=C1CCC(N2C(=O)c3cccc(NCc4cnn(C5CCN(C(=O)C6CCOCC6)CC5)c4)c3C2=O)C(=O)N1 (stereo not drawn) [Compound 11, 2-(2,6-dioxopiperidin-3-yl)-4-(((1-(1-(tetrahydro-2H-pyran-4-carbonyl)piperidin-4-yl)-1H-pyrazol-4-yl)methyl)amino)isoindoline-1,3-dione] | < 0.1 |
| CC(C)(C)CC(=O)N1CCC(n2cc(CNc3cccc4c3C(=O)N(C3CCC(=O)NC3=O)C4=O)cn2)CC1 (stereo not drawn) [Compound 12, 4-(((1-(1-(3,3-dimethylbutanoyl)piperidin-4-yl)-1H-pyrazol-4-yl)methyl)amino)-2-(2,6-dioxopiperidin-3-yl)isoindoline-1,3-dione] | < 0.1 |
| CCC(C)C(=O)N1CCC(n2cc(CNc3cccc4c3C(=O)N(C3CCC(=O)NC3=O)C4=O)cn2)CC1 (stereo not drawn) [Compound 13, 2-(2,6-dioxopiperidin-3-yl)-4-(((1-(1-(2-methylbutanoyl)piperidin-4-yl)-1H-pyrazol-4-yl)methyl)amio)isoindoline-1,3-dione] | < 0.1 |
| O=C1CCC(N2C(=O)c3cccc(NCc4cnn(C5CCN(C(=O)C6CCC6)CC5)c4)c3C2=O)C(=O)N1 (stereo not drawn) [Compound 14, 4-(((1-(1-(cyclobutanecarbonyl)piperidin-4-yl)-1H-pyrazol-4-yl)methyl)amino)-2-(2,6-dioxopiperidin-3-yl)isoindoline-1,3-dione] | < 0.1 |
| CO[C@H]1CC[C@H](C(=O)N2CCC(n3cc(CNc4cccc5c4C(=O)N(C4CCC(=O)NC4=O)C5=O)cn3)CC2)CC1 (stereo partly drawn) [Compound 15, 2-(2,6-dioxopiperidin-3-yl)-4-(((1-(1-((1r,4r)-4-methoxycyclohexane-1-carbonyl)piperidin-4-yl)-1H-pyrazol-4-yl)methyl)amino)isoindoline-1,3-dione] | < 0.1 |
| O=C1CCC(N2C(=O)c3cccc(NCc4cnn(C5CCN(C(=O)c6ccccc6)CC5)c4)c3C2=O)C(=O)N1 (stereo not drawn) [Compound 16, 4-(((1-(1-benzoylpiperidin-4-yl)-1H-pyrazol-4-yl)methyl)amino)-2-(2,6-dioxopiperidin-3-yl)isoindoline-1,3-dione] | < 0.1 |
| CCOCC(=O)N1CCC(n2cc(CNc3cccc4c3C(=O)N(C3CCC(=O)NC3=O)C4=O)cn2)CC1 (stereo not drawn) [Compound 17, 2-(2,6-dioxopiperidin-3-yl)-4-(((1-(1-(2-ethoxyacetyl)piperidin-4-yl)-1H-pyrazol-4-yl)methyl)amino)isoindoline-1,3-dione] | < 0.1 |
| O=C1CCC(N2C(=O)c3cccc(NCc4cnn(C5CCN(C(=O)Cn6cccn6)CC5)c4)c3C2=O)C(=O)N1 (stereo not drawn) [Compound 18, 4-(((1-(1-(2-(1H-pyrazol-1-yl)acetyl)piperidin-4-yl)-1H-pyrazol-4-yl)methyl)amino)-2-(2,6-dioxopiperidin-3-yl)isoindoline-1,3-dione] | < 0.1 |
| N#CCC(=O)N1CCC(n2cc(CNc3cccc4c3C(=O)N(C3CCC(=O)NC3=O)C4=O)cn2)CC1 (stereo not drawn) [Compound 19, 3-(4-(4-(((2-(2,6-dioxopiperidin-3-yl)-1,3-dioxoisoindolin-4-yl)amino)methyl)-1H-pyrazol-1-yl)piperidin-1-yl)-3-oxopropanenitrile] | < 0.1 |
| O=C1CCC(N2C(=O)c3cccc(NCc4cnn(C5CCN(C(=O)CC6CCCC6)CC5)c4)c3C2=O)C(=O)N1 (stereo not drawn) [Compound 20, 4-(((1-(1-(2-cyclopentylacetyl)piperidin-4-yl)-1H-pyrazol-4-yl)methyl)amino)-2-(2,6-dioxopiperidin-3-yl)isoindoline-1,3-dione] | < 0.1 |
| O=C1CCC(N2C(=O)c3cccc(NCc4cnn(C5CCN(C(=O)CCC6CC6)CC5)c4)c3C2=O)C(=O)N1 (stereo not drawn) [Compound 21, 4-(((1-(1-(3-cyclopropylpropanoyl)piperidin-4-yl)-1H-pyrazol-4-yl)methyl)amino)-2-(2,6-dioxopiperidin-3-yl)isoindoline-1,3-dione] | < 0.1 |
| O=C1CCC(N2C(=O)c3cccc(NCc4cnn(C5CCN(C(=O)C6CCCCC6)CC5)c4)c3C2=O)C(=O)N1 (stereo not drawn) [Compound 22, 4-(((1-(1-(cyclohexanecarbonyl)piperidin-4-yl)-1H-pyrazol-4-yl)methyl)amino)-2-(2,6-dioxopiperidin-3-yl)isoindoline-1,3-dione] | < 0.1 |
| CC(C)CCC(=O)N1CCC(n2cc(CNc3cccc4c3C(=O)N(C3CCC(=O)NC3=O)C4=O)cn2)CC1 (stereo not drawn) [Compound 23, 2-(2,6-dioxopiperidin-3-yl)-4-(((1-(1-(4-methylpentanoyl)piperidin-4-yl)-1H-pyrazol-4-yl)methyl)amino)isoindoline-1,3-dione] | < 0.001 |
| O=C1CCC(N2C(=O)c3cccc(NCc4cnn(C5CCN(C(=O)C6CC6)CC5)c4)c3C2=O)C(=O)N1 (stereo not drawn) [Compound 24, 4-(((1-(1-(cyclopropanecarbonyl)piperidin-4-yl)-1H-pyrazol-4-yl)methyl)amino)-2-(2,6-dioxopiperidin-3-yl)isoindoline-1,3-dione] | < 0.1 |
| O=C1CCC(N2C(=O)c3cccc(NCc4cnn(C5CCN(C(=O)Cc6ccc(F)cc6)CC5)c4)c3C2=O)C(=O)N1 (stereo not drawn) [Compound 25, 2-(2,6-dioxopiperidin-3-yl)-4-(((1-(1-(2-(4-fluorophenyl)acetyl)piperidin-4-yl)-1H-pyrazol-4-yl)methyl)amino)isoindoline-1,3-dione] | < 0.1 |
| O=C1CCC(N2C(=O)c3cccc(NCc4cnn(C5CCN(C(=O)CC6CC6)CC5)c4)c3C2=O)C(=O)N1 (stereo not drawn) [Compound 26, 4-(((1-(1-(2-cyclopropylacetyl)piperidin-4-yl)-1H-pyrazol-4-yl)methyl)amino)-2-(2,6-dioxopiperidin-3-yl)isoindoline-1,3-dione] | < 0.1 |
| O=C1CCC(N2C(=O)c3cccc(NCc4cnn(C5CCN(C(=O)CC6CCCCC6)CC5)c4)c3C2=O)C(=O)N1 (stereo not drawn) [Compound 27, 4-(((1-(1-(2-cyclohexylacetyl)piperidin-4-yl)-1H-pyrazol-4-yl)methyl)amino)-2-(2,6-dioxopiperidin-3-yl)isoindoline-1,3-dione] | < 0.001 |
| O=C1CCC(N2C(=O)c3cccc(NCc4cnn(C5CCN(C(=O)CC6CCOCC6)CC5)c4)c3C2=O)C(=O)N1 (stereo not drawn) [Compound 28, 2-(2,6-dioxopiperidin-3-yl)-4-(((1-(1-(2-(tetrahydro-2H-pyrazin-4-yl)acetyl)piperidin-4-yl)-1H-pyrazol-4-yl)methyl)amino)isoindoline-1,3-dione] | < 0.1 |

From US11753397B2, “Cereblon binders for the degradation of ikaros” (C4 Therapeutics, Inc., priority 2018, dated 2023)
